Data on six compounds can be found in publication PMC11557929, “Environment-sensitive turn-on fluorescent probe enables live cell imaging of myeloperoxidase activity during NETosis” (Communications Chemistry, 2024).

For series [1], the target named is T1, MPO (Homo sapiens, UniProt P05164).
T1 sequence (P05164 49-745): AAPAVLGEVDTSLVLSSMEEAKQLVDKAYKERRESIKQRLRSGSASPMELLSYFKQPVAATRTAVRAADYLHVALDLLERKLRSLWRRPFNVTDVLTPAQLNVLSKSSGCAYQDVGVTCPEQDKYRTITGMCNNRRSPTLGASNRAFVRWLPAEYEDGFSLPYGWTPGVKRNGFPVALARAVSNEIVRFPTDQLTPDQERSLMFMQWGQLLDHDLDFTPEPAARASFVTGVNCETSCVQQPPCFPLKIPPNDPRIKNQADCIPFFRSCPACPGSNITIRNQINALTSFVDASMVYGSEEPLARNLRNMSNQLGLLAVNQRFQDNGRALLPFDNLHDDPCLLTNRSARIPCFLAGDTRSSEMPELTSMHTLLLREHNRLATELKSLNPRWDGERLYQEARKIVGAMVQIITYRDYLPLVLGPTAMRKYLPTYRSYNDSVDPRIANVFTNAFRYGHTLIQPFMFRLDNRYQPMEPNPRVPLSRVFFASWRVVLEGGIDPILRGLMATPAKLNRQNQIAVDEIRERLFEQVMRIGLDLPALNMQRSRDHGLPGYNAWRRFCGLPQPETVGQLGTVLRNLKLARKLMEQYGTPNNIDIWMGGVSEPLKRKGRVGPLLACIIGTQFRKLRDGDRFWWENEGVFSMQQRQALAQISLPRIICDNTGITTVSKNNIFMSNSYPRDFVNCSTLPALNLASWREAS
The experiment in a line: Amplex Red assay of MPO peroxidase activity. Format: biochemical. To be noted: for IC50: Amplex Red assay, t = 30 min, 100 pM MPO, 1 µM H2O2. An excerpt:
Having obtained the fluorescent properties of probes 1-6, we determined their functional properties by the Amplex Red assay as previously reported (Table 1, Supplementary Figs. 1-6)[27]. In this assay, 10-acetyl-3,7-dihydroxyphenoxazine is oxidized by MPO in the presence of H2O2 to resorufin, a highly fluorescent compound with an fluorescence excitation and emission maxima of 571 and 585 nm, respectively. Fortunately, probes 1, 2, 4, 5, and 6 retained similar IC50 values as those previously reported for 2-thioxanthine-based inhibitors despite the presence of the environment-sensitive fluorophores[27],[33]. However, we noticed a slight negative trend in the IC50 of probes containing the shorter ethyl spacer. This effect was more evident in probe 3, which experienced a ~ 4-fold reduction in IC50 values compared to its counterpart probe 4.
MPO peroxidase activity and the determination of inhibitor potencies were performed as described before with minimal changes. In brief, to 78 uL of assay mixture (PBS (pH 7.4), 1 µM H2O2, and 20 µM Amplex Red) were added 2 μL of probe 1-6 in concentrations from 0 to 40 µM in DMSO (final DMSO concentration of 2%) and mixed for 1 min. The reactions were initiated by the addition of 20 μL 500 pM MPO (final MPO concentration of 100 pM) followed by mixing for 5 s. Fluorescent changes (RFU/s) were monitored at room temperature every 20 s for 30 min with excitation and emission filters set at 530 and 580 nm, respectively. Initial rates (V0) were determined using linear regression analysis of the first 600 s corresponding to the linear range of the DMSO control. To calculate IC50 values, V0 and probe concentration were fit to a dose-response curve with a standard Hill slope of -1 using nonlinear regression analysis. The kobs, kinact, and KI values for probe 1 were calculated exactly as described before.

Series [2] can be described thus: Fluorescence excitation and emission spectra in solvents of different polarity. It counts as physicochemical. To be noted: for fluorescence increase in CH2Cl2 compared to PBS buffer (pH 7.4): approximate values. As to the method: To validate the solvatochromic properties of the probes, we recorded the fluorescence excitation and emission spectra of probes 1-6 in a 10 μM solution in CH2Cl2, CH3CN, CH3OH, and PBS buffer (pH 7.4, Table 1, Supplementary Table 1). These solvents have different polarities thereby emulating the hydrophobic enzyme-probe binding site environment (Supplementary Figs. 1-6). […] This effect was less prominent for 3 and 4 with a ~ 110-fold fluorescence increase, and for 5 and 6 with a ~ 30-fold fluorescence increase.
Probes 1-6 were prepared into 10 mM DMSO stock solutions and diluted to 10 μM with CH2Cl2, CH3CN, CH3OH, or PBS (pH 7.4). The fluorescence excitation spectra of each probe was measured between 300 and 480 nm for probes 1-4 and 300 and 500 nm for probes 5 and 6. The fluorescence emission spectra of each probe was measured between 480 and 700 nm for probes 1-4 and 500 and 700 nm for probes 5 and 6.

The test system of series [3] is MPO activity in human polymorphonuclear neutrophils (hPMN). Briefly: Wash-free live-cell imaging of probes in hPMN during NETosis. It counts as cell-based. To be noted: 100 nM PMA, probe near IC50, 3 h, 37 °C; for MFI (mean fluorescence intensity): whole images. On the procedure:
With probes 1-6 in hand, we opted for a cell-based screening strategy to find suitable probes to image MPO activity during NETosis (Fig. 1A). In this approach, we stimulated freshly isolated human polymorphonuclear neutrophils (hPMN) with PMA and incubated with probes 1-6 at concentrations near their IC50 for 3 h. […] Subsequently, probes that show a significant ‘’turn-on” fluorescence compared to unstimulated cells are selected and tested for colocalization with an anti-MPO antibody in fixed cells. With this cell-based strategy, potential suitable probes to image MPO activity during NETosis can be immediately identified. Therefore, live hPMN were incubated with PMA and probes 1-6 and imaged directly (Fig. 1B).
Colocalization analysis was performed with JaCoP[34].

Series [4] concerns the target T1, MPO. The experiment in a line: Fluorescence turn-on of probe with purified MPO. Format: biochemical. To be noted: 1 µM probe, 15 µM MPO, 150 µM H2O2, PBS (pH 7.4). As to the method: (§1) Furthermore, we confirmed the chemical stability of probe 1 in cell culture media with or without serum for 4 and 24 h at 37 °C (Supplementary Fig. 7).
(§2) To a stirring solution of the corresponding N-Boc aldehyde B1 or B2 (7.6 mmol) and AcOH (1.2 mmol) in dry CH3OH (30 mL) was added 4-amino-1H-imidazole-5-carboxamide (6.0 mmol). The reaction was stirred for 2.5 h under N2 before NaBH3CN (7.2 mmol) was added in one portion and the mixture was left stirring overnight under N 2. A solution of sat. aq. NaHCO3 was added and most of the CH3OH was removed in vacuo. The residue was extracted with EtOAc and the combined organic layers were dried over MgSO 4, filtered, and the crude product purified by flash silica gel column chromatog raphy (0-10% CH3OH/CH2Cl2) to give C1 or C2. […]
(§3) The solutions were incubated for 5 min and the fluorescence emission spectra was measured between 480 and 600 nm. […]
(§4) Probe 1 was diluted to 400 µM and incubated in CH3CN, RPMI 1640, or RPMI 1640 supplemented with 2% FCS for 0, 4, and 24 h at 37 °C under constant shaking. […] The supernatant was filtered and analyzed by HPLC. […]
(§5) Differentiation was assessed morphologically by fluorescent nuclear staining (Hoechst 33342) and by evaluation of CD11b expre ssion with a rat primary antibody directed against human CD11b (M1/70, Invitrogen, 1:400, 30 min, 4 °C) using a BD FACSVerse Flow Cytometer. Data were analyzed with FlowJo. […]

The nature of series [5]: Chemical stability in cell culture media (HPLC). It counts as physicochemical. The settings on record: cell culture media with or without serum, 4 and 24 h, 37 °C. On the procedure: as §1, §2, §3, §4, §5
The subject of series [6] is MPO activity in human polymorphonuclear neutrophils (hPMN). The experiment in a line: Wash-free live-cell imaging of probes in hPMN during NETosis. It counts as cell-based. To be noted: 4 µM ionomycin, 1 µM probe, 3 h.
Setting [7] is: from kobs vs probe concentration.

Bounds are passed on as bounds.

For `O=c1[nH]c(=S)n(CCOCCNc2ccc([N+](=O)[O-])c3nonc23)c2nc[nH]c12` [Probe 6], the IC50 on MPO [1] was 388 ± 35 nM. In series [2] (10 μM), the “fluorescence increase in CH2Cl2 compared to PBS buffer (pH 7.4)” value (“fluorescence increase in CH2Cl2” for short) is given as ~ 30 fold. In series [2] (CH2Cl2, 10 μM), this compound yielded a λem of 517 nm and a λex of 452 nm. In series [2] (PBS (pH 7.4), 10 μM), the λem is 558 nm and the λex amounted to 488 nm. In series [3], the “MFI (mean fluorescence intensity)” value was under 0.1 gray values.

`CN(C)S(=O)(=O)c1ccc(NCCOCCn2c(=S)[nH]c(=O)c3[nH]cnc32)c2nonc12` [Probe 4] came in with a half-maximal inhibitory concentration (IC50) on MPO [1] of 1090 ± 151 nM. Moreover, the “fluorescence increase in CH2Cl2” value in series [2] (10 μM) is given as ~ 110 fold. In addition, in series [2] (CH2Cl2, 10 μM), the λem came to 535 nm and the λex amounted to 420 nm. In series [2] (PBS (pH 7.4), 10 μM), the λem is 600 nm and the λex was 435 nm. Besides, in series [3], the “S/B (signal-to-background ratio)” value is 7.3 and the “MFI (mean fluorescence intensity)” value is reported as 1.8 gray values.

As for `O=c1[nH]c(=S)n(CCNc2ccc([N+](=O)[O-])c3nonc23)c2nc[nH]c12` [Probe 5], the IC50 at MPO [1] is 497 ± 86 nM. In addition, in series [2] (10 μM), the “fluorescence increase in CH2Cl2” value is given as ~ 30 fold. Besides, in series [2] (CH2Cl2, 10 μM), the λem is on record as 522 nm and the λex is 452 nm. In series [2] (PBS (pH 7.4), 10 μM), the λem is 558 nm and the λex worked out at 473 nm. In addition, in series [2] (supplementary figure legends), the “fluorescence increase at λem in CH2Cl2 compared to PBS (pH 7.4)” value came out at 40 x. Also, the “MFI (mean fluorescence intensity)” value in series [3] was under 0.1 gray values.

`CN(C)S(=O)(=O)c1ccc(NCCn2c(=S)[nH]c(=O)c3[nH]cnc32)c2nonc12` [Probe 3] displayed an IC50 at MPO [1] of 4570 ± 1830 nM. For the same compound, the “fluorescence increase in CH2Cl2” value in series [2] (10 μM) is ~ 110 fold. Also, in series [2] (CH2Cl2, 10 μM), the λem was 532 nm and the λex is 417 nm. In series [2] (PBS (pH 7.4), 10 μM), this compound showed a λem of 600 nm and a λex of 435 nm. In series [3], the “S/B (signal-to-background ratio)” value is reported as 8.9 and the “MFI (mean fluorescence intensity)” value came out at 1.5 gray values.

Consider `CN(C)c1ccc2c3c(cccc13)C(=O)N(CCOCCn1c(=S)[nH]c(=O)c3[nH]cnc31)C2=O` [Probe 2], for which it took 479 ± 17 nM to reach half-maximal inhibition at MPO [1] (IC50). The “fluorescence increase in CH2Cl2” value in series [2] (10 μM) is reported as ~ 300 fold. Moreover, in series [2] (CH2Cl2, 10 μM), the λem worked out at 512 nm and the λex worked out at 415 nm. In series [2] (PBS (pH 7.4), 10 μM), this compound gave a λem of 560 nm and a λex of 446 nm. Also, in series [3], the “S/B (signal-to-background ratio)” value is listed as 11.7 and the “MFI (mean fluorescence intensity)” value is 3.0 gray values.

Turning to `CN(C)c1ccc2c3c(cccc13)C(=O)N(CCn1c(=S)[nH]c(=O)c3[nH]cnc31)C2=O` [Probe 1], on MPO [1], the kinact/KI was 4263 M^−^1s^−^1 and inhibition was half-maximal at 854 ± 44 nM (IC50). Further, on MPO [1] (setting [7]), the Ki worked out at 1080 ± 73 nM and the kinact is 0.0046 ± 0.0001 s^−^1. Besides, the “fluorescence increase in CH2Cl2” value in series [2] (10 μM) is given as ~ 300 fold. Also, in series [2] (CH2Cl2, 10 μM), the λem was determined as 510 nm and the λex is listed as 415 nm. Also, in series [2] (PBS (pH 7.4), 10 μM), the λem came out at 560 nm and the λex is listed as 457 nm. In series [3], the “S/B (signal-to-background ratio)” value is reported as 16.7 and the “MFI (mean fluorescence intensity)” value is on record as 6.9 gray values. Further, at MPO [4], the “fluorescence increase with MPO compared to probe alone, ABAH pre-treated MPO or BSA” value is listed as ~ 13 fold. The chemical stability entry in series [5] is recorded as “chemically stable”. The “probe signal in ionomycin-stimulated cells” value in series [6] is reported as “not significantly different from unstimulated background levels”.
